IC50 data for one molecule are collected here from patent US20240376091A1, “THIADIAZOLEAMIDE DERIVATIVES AND THEIR APPLICATIONS” (ZHEJIANG UNIVERSITY, priority 2021, published 2024).

This test addresses T1, FL-AR^V684A (Homo sapiens, UniProt P10275, V685A).
T1 construct: toward full-length (FL)-AR^WT and FL-AR^V684A; expressed in transfected cells; host or cells: PC3
T1 sequence (P10275 1-920 V685A): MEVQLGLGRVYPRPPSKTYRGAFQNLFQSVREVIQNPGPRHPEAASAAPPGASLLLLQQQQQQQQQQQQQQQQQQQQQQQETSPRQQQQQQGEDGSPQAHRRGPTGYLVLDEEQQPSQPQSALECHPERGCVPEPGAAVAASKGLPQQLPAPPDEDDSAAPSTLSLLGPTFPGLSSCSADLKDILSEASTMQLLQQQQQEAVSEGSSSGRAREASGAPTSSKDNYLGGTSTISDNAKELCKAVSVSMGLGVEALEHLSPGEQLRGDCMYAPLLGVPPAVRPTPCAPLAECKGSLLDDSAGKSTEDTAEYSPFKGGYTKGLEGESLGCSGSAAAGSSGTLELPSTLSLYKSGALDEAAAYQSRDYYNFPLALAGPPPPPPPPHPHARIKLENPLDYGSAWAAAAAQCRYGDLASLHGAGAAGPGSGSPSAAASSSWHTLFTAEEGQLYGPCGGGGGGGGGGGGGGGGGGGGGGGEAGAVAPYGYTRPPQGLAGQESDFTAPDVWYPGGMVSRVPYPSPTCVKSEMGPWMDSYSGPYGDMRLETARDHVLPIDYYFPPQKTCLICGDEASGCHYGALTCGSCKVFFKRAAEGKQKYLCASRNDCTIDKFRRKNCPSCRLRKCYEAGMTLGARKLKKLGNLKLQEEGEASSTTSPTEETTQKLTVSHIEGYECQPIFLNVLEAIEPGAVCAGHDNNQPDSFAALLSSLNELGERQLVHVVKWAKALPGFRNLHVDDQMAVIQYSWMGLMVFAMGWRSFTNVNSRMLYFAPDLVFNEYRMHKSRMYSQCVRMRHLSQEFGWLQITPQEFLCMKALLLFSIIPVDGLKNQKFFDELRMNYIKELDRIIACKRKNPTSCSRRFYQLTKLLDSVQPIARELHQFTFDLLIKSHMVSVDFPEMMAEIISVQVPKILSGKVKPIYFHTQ
In words: Luciferase reporter assay in PC3 cells, AR V684A. The class given is cell-based. The settings on record: read-out: IC50 toward FL-AR^V684A. How it is done:
Detection principles: A reporter system for detecting the activities of firefly luciferase. To quantitatively detect the interaction between transcription factors and target promoters, the fluorescent intensities are detected to quantitatively evaluate the activities of firefly luciferase.
Methods: PC3 cells (no endogenous AR) treated with DMEM media supplemented with 5% CSS for 48 hours. Then, the PC3 cells (1.2×10^4/well) were seeded into 96-well plates. After 16 hours, the PC3 cells were transfected with 20 ng/well plasmid and incubated for 20 min at room temperature. After 1 day incubation, the media in the wells was replaced, followed by the addition of various concentrations of compounds. After 48 hours, the culture medium was discarded and the cells were washed with 100 μL PBS, followed by addition of 30 μL 1×PLB and the 96-well plates was shaken on a shaker for 20 min to ensure complete lysis of the cells. Then, the cell lysis supernatant (20 μL/well) was transferred to a white opaque 96-well, and addition of 30 μL Luciferase Assay Reagent II to each well. Then, the fluorescent intensities of firefly luciferase were evaluated. Afterwards, 30 μL Stop&Glo Reagant was added to the wells, and the fluorescent intensities of […] evaluated.
(A reporter such as luciferase makes a cellular process visible.)

Broadly, the IC50 is the concentration at which inhibition is half-maximal. With `CC(=O)Cc1nsc(NC(=O)c2cc(-c3cccc(C(F)(F)F)c3)oc2C)n1` [Compound A-1, 2-Methyl-N-(3-(2-oxopropyl)-1,2,4-thiadiazol-5-yl)-5-(3-(trifluoromethyl)phenyl)furan-3-carboxamide], the IC50 was found to be 0.06 µM.
